From ChEMBL document CHEMBL1201862, “PubChem BioAssay data set” (2004)
The source made the active and inactive calls.

Columns and labels:
[1] = biological target: T1, Microphthalmia-associated transcription factor (Homo sapiens, UniProt O75030); assay: reducers of TRPM1 reporter luminescence, concentration series – cell-based, SK-MEL-5, cherry-picked, set 3, MITF inhibitor project, dose response (AID 493073); format: functional;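 note: SK-MEL-5 melanoma cells with luciferase driven by the MITF target TRPM1 promoter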
T1 sequence (O75030 whole entry): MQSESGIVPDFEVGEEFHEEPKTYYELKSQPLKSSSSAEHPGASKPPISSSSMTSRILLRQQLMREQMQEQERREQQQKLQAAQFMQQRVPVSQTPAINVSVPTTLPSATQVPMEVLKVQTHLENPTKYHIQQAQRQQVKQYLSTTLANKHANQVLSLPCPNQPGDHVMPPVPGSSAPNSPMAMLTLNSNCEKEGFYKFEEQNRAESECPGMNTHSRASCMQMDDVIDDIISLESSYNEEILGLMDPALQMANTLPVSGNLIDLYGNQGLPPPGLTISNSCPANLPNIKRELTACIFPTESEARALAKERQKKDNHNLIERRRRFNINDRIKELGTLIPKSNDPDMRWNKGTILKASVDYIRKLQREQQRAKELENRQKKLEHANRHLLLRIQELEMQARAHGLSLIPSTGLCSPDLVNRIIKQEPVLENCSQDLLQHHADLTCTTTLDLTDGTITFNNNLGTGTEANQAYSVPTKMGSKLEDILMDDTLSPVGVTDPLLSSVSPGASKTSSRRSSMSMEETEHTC

INS1 = assay: INS-1E survival protection against cytokine death – cell-based, luminescence, retest, dose response (AID 449756); format: functional; details: Rattus norvegicus;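 note: cell death triggered by IL-1 beta plus TNF-alpha plus IFN-gamma mixture; protective hits raise ATP signal compared with cytokine alone wells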
[2] = activation of miR-122 Renilla sensor silencing – cell-based, Huh7 psiCHECK-miR122, Renilla luciferase, cherry-picked, dose response (AID 651956); format: functional;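 note: huh7 hepatoma cells stably carrying a psiCHECK-2 miR-122 sensor plasmid; renilla luciferase signal reporting endogenous miR-122 activity after 48 h compound exposure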
[3] = general mammalian cell viability loss – inhibitor set, cherry-pick, set 2, cytotoxicity control for miR-122 modulator project, dose response (AID 720697); format: functional, cell-based
[4] = general mammalian cell viability loss – activator set, cherry-pick, cytotoxicity control for miR-122 modulator project, dose response (AID 720690); format: functional, cell-based;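 note: HEK293T human cells scored for general mammalian cytotoxicity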
Paired box protein Pax-8 = Paired box protein Pax-8 (Homo sapiens, UniProt Q06710); assay: PAX8 transcriptional activity inhibition in RMG-I – RMG-I cells, luciferase, cherry-pick, dose response (AID 687027); format: functional, cell-based;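 note: luciferase reporter driven by Pax8 target thyroperoxidase promoter measured by SteadyGlo luminescence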
[5] = OVCAR-3 cell viability loss – plate reader, dry powder samples, PAX8 inhibitor project, dose response (AID 743044); format: functional, cell-based
[6] = IGROV1 cell killing – plate reader, dry powder samples, PAX8 inhibitor project, dose response (AID 743043); format: functional, cell-based; details: IGROV-1
[7] = OVCAR8 cell viability loss – plate reader, dry powder samples, PAX8 project, dose response (AID 743197); format: functional, cell-based; details: OVCAR-8
[8] = Late-stage results from the probe development effort to identify antagonists of arginine vasopressin receptor 1a (AVPR1a): fluorescence-based cell-based dose response AVPR1a inhibition assay.; format: functional
Vasopressin V1b receptor = Vasopressin V1b receptor (Homo sapiens, UniProt P47901); assay: Late-stage results from the probe development effort to identify antagonists of arginine vasopressin receptor 1a (AVPR1a): fluorescence-based cell-based dose response AVPR1b inhibition counterscreen assay.; format: functional
Vasopressin V2 receptor = Vasopressin V2 receptor (Homo sapiens, UniProt P30518); assay: Late-stage results from the probe development effort to identify antagonists of arginine vasopressin receptor 1a (AVPR1a): fluorescence-based cell-based dose response AVPR2 inhibition counterscreen assay.; format: functional
[9] = Late-stage results from the probe development effort to identify antagonists of arginine vasopressin receptor 1a (AVPR1a): fluorescence-based cell-based dose response OXTR inhibition counterscreen assay.; format: functional
[10] = cytotoxicity in MITF-independent A375 cells – cell-based, CellTiter-Glo luminescence, dry powder, set 4, counter-screen for MITF inhibitor project, dose response (AID 624364); format: functional; details: A-375;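 note: A375 melanoma cells are MITF independent so this is a counter screen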
[11] = viability loss in MITF-independent A375 cells – cell-based, CellTiter-Glo luminescence, dry powder, set 2, counter-screen for MITF inhibitor project, dose response (AID 624489); format: functional; details: A-375;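 note: actives are compounds lowering A375 viability meaning general cytotoxicity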
[12] = biological target: Potassium channel subfamily K member 3 (Homo sapiens, UniProt O14649); assay: inhibition of human KCNK3 channel flux – CHO cells, FluxOR thallium flux, SAR follow-up (AID 652212); format: functional
[13] = ATP-based viability loss in HepG2 cells – cell-based, CellTiter-Glo luminescence, dry powder, set 3, cytotoxicity control, dose response (AID 720594); format: functional
[14] = dual-tagged ARNT PAS-B bead signal quenchers – biochemical, dry powder, artefact control for ARNT/TACC3 disruptor project, dose response (AID 720564)
[15] = biological target: Protein disulfide-isomerase A6 (Homo sapiens, UniProt Q15084); assay: Secondary Assay for Selectivity of PDI Inhibitors (against ERp5) Measured in Biochemical System Using Plate Reader - 2137-04_Inhibitor_Dose_DryPowder_Activity_Set3.
[16] = loss of viability in HeLa cells – cell-based, ATP luminescence, dry powder, cytotoxicity control, dose response (AID 652117); format: functional
[17] = biological target: Protein disulfide-isomerase (Homo sapiens, UniProt P07237); assay: inhibition of PDI-mediated insulin reduction – biochemical, turbidity, dry powder samples, set 2, confirmation (AID 652146)
[18] = viability loss in HepG2 hepatoma cells – cell-based, cherry-picks, set 5, cytotoxicity control, dose response (AID 1053118); format: functional
[19] = viability loss in HEK293 kidney cells – cell-based, cherry-picks, set 5, cytotoxicity control, dose response (AID 1053117); format: functional

Sequence of Protein disulfide-isomerase (P07237 whole entry): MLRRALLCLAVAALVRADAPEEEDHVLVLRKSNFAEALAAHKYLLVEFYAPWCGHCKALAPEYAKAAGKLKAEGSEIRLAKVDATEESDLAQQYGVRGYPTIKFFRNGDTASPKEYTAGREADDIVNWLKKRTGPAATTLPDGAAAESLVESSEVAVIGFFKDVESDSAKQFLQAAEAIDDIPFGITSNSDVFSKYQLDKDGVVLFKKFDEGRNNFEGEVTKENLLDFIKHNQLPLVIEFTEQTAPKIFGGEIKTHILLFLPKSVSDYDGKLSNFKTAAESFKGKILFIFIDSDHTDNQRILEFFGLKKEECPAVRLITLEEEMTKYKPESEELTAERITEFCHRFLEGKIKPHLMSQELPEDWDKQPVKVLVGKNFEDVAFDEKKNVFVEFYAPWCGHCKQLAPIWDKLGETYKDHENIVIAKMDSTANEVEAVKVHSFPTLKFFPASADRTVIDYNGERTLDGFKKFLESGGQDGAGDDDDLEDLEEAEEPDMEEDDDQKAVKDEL
Sequence of Vasopressin V1b receptor (P47901 whole entry): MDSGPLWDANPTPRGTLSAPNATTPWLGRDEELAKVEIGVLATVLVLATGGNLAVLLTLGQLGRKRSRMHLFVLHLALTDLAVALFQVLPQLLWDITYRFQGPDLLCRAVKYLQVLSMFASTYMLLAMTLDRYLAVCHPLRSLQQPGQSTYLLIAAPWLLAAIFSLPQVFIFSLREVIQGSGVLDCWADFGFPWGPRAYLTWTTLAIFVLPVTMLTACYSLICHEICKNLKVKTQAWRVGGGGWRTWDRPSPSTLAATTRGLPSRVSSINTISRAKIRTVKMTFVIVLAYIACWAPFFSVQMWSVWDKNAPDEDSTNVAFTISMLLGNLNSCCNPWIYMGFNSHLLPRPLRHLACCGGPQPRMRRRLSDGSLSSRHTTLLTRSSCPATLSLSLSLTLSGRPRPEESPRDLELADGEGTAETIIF
Sequence of Vasopressin V2 receptor (P30518 whole entry): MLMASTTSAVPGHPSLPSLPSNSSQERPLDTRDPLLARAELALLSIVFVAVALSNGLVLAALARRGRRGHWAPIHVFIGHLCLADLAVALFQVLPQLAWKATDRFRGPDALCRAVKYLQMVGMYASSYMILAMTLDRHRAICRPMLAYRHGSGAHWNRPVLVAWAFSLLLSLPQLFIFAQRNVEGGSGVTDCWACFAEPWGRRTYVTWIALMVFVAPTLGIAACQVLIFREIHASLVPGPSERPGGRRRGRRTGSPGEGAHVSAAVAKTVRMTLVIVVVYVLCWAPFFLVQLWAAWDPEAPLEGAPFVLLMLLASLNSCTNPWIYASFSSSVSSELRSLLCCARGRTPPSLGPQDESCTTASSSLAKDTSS
Sequence of Potassium channel subfamily K member 3 (O14649 whole entry): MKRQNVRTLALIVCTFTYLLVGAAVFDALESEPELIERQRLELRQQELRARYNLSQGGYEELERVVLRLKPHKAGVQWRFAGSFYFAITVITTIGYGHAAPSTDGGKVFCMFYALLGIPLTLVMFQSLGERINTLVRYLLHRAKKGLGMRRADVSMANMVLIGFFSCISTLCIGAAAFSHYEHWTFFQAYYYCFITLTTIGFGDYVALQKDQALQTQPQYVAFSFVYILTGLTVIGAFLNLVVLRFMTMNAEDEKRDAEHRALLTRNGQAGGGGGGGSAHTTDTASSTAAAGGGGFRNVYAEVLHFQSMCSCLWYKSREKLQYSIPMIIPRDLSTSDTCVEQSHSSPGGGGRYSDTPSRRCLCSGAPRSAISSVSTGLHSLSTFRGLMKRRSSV
Sequence of Paired box protein Pax-8 (Q06710 whole entry): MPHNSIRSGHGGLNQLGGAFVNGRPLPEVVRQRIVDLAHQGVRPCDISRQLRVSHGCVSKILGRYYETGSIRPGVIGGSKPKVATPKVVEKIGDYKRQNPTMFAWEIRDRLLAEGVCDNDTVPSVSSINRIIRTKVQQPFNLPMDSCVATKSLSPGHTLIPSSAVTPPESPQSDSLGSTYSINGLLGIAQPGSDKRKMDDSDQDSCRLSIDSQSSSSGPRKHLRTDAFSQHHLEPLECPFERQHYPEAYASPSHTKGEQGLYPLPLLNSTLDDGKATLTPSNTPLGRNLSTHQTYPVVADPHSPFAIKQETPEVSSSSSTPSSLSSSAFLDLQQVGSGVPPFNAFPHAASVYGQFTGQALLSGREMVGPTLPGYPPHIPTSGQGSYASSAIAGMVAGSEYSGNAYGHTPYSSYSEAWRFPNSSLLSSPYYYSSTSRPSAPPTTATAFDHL
Sequence of Protein disulfide-isomerase A6 (Q15084 whole entry): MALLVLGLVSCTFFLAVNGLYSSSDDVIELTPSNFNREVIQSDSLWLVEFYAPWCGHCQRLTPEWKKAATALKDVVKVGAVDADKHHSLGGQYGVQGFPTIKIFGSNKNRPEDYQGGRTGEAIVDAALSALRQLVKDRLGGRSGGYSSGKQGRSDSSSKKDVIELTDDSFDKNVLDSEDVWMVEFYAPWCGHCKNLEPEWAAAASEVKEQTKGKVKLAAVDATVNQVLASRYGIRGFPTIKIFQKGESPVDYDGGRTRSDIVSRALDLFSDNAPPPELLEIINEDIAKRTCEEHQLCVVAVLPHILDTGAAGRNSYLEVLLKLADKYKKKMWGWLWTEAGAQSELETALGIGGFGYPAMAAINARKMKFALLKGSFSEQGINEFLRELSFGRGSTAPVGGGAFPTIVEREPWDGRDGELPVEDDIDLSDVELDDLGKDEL

In the case of Oc1c(Cl)cc(Cl)cc1/C=N/Nc1ncc(Br)cn1, the AC50 [1] is reported as 7.84 µM (active), the AC50 (INS1) is reported as 0.388 µM (active) and the AC50 [2] is reported as 54.3 µM (active). The AC50 [3] was 5.81 µM (active) and the AC50 [4] was 22.9 µM (active).

With Cc1ccc(-c2ccc([C@H]3[C@H](CO)N4CCCCN(S(=O)(=O)c5cccc(C)c5)C[C@@H]34)cc2)cc1 the AC50 (Paired box protein Pax-8) was 8.11 µM (active), the AC50 [5] was 31.7 µM (active) and the AC50 [6] was 55.4 µM (active). For the same compound, the AC50 [7] was 46 µM (active).

In the case of Cc1cccnc1N1CCN(C(=O)N(CC2CC2)c2ccc(Cl)cc2)CC1, the IC50 [8] is reported as 0.0084 µM (active), the IC50 (Vasopressin V1b receptor) is reported as > 50 µM (inactive) and the IC50 (Vasopressin V2 receptor) is reported as > 50 µM (inactive). For the same compound, the IC50 [9] was > 50 µM (inactive).

In the case of O=C1C(NS(=O)(=O)c2ccc(Br)cc2)=C(N2CCSCC2)C(=O)c2ccccc21, the AC50 [10] is reported as > 70 µM (inactive) and the AC50 [11] is reported as > 70 µM (inactive).

In the case of Cc1cccc(S(=O)(=O)Nc2cccc(NC(=O)c3ccccc3)c2)c1, the IC50 [12] is reported as 1.45 µM (active).

In the case of CC1CCN(S(=O)(=O)c2ccc(C(=O)Nc3nnc(-c4cccs4)o3)cc2)CC1, the AC50 [13] is reported as > 52 µM (inactive) and the AC50 [14] is reported as 116 µM (active).

In the case of CC(C)OC(=O)C1(CCOc2ccccc2)CCN(Cc2ccc(O)c(Cl)c2)CC1, the AC50 [15] is reported as 30 µM (inactive), the AC50 [16] is reported as 47.9 µM (active) and the AC50 [17] is reported as 1 µM (active).

With N#Cc1ccc(-c2ccc3c(c2)[C@H]2[C@H](CCN2S(=O)(=O)c2cccc(F)c2)[C@@H](CO)N3)cc1 the AC50 [18] was 38.1 µM (active) and the AC50 [19] was 32.8 µM (active).
